Measured values from article PMC10166914, “GTN057, a komaroviquinone derivative, induced myeloma cells' death in vivo and inhibited c‐MET tyrosine kinase” (Cancer Medicine, 2023).

How the values were obtained:
[1] = tested on: bone marrow cells from mice; set-up: method as in PMID 28882484; conditions: cited from earlier work
[2] = tested on: KMS34 cells; experiment: Growth inhibition, trypan blue exclusion assay; format: cell-based; conditions: Homo sapiens, KMS-34, KMS34, 48 h
Method: (§1) For the trypan blue exclusion assay, 2 × 10^5 cells/mL of each MM cell line were incubated with various concentrations of GTN057 (0–20 μM). The cells were cultured in triplicate plates, and viable cells were evaluated by a trypan blue exclusion assay (Trypan Blue Stain 0.4%, Gibco) using an automatic cell counter (TC20™, Bio‐Rad).

[3] = tested on: KMS21 cells; experiment: Growth inhibition, trypan blue exclusion assay; format: cell-based; conditions: Homo sapiens, KMS21, 48 h
Method: as §1

[4] = tested on: KMS11 cells; experiment: Growth inhibition, trypan blue exclusion assay; format: cell-based; conditions: Homo sapiens, KMS-11, KMS11, 48 h
Method: as §1

[5] = tested on: KMS27 cells; experiment: Growth inhibition, trypan blue exclusion assay; format: cell-based; conditions: Homo sapiens, KMS-27, KMS27, 48 h
Method: as §1

[6] = tested on: KMM1 cells; experiment: Growth inhibition, trypan blue exclusion assay; format: cell-based; conditions: Homo sapiens, KMM-1, KMM1, 48 h
Method: as §1

[7] = tested on: MUM24 cells; experiment: Growth inhibition, trypan blue exclusion assay; format: cell-based; conditions: Homo sapiens, MUM24, 48 h
Method: as §1

[8] = tested on: KMS28 cells; experiment: Growth inhibition, trypan blue exclusion assay; format: cell-based; conditions: Homo sapiens, KMS28, 48 h
Method: as §1

[9] = tested on: KMS26 cells; experiment: Growth inhibition, trypan blue exclusion assay; format: cell-based; conditions: Homo sapiens, KMS-26, KMS26, 48 h
Method: as §1

[10] = tested on: FGF-2 stimulated ERK1/2, STAT3, AKT1 phosphorylation; experiment: Western blot, FGF-2-stimulated signaling in KMS11 cells; format: cell-based, human; conditions: KMS11 cells stimulated by FGF-2
Method: (§2) MM cells (4 × 10^5 cells/mL) were incubated with 0–20 μM GTN057 for 12 h. The cells were then co‐cultured with 0–50 ng/mL of hepatocyte growth factor (HGF) (PeproTech, London) or 0–20 ng/mL of fibroblast growth factor (FGF)‐2 (PeproTech) with 1 unit/mL of heparin in RPMI containing 4% dialyzed FCS (Gibco) for the KMS11 and KMS34 cells and 10% dialyzed FCS for the KMS21 cells for 15 min at RT (room temperature). A549 cells were co‐cultured with 0–50 ng/mL of epidermal growth factor (EGF) (PeproTech) in Eagle's MEM containing 4% dialyzed FCS for 15 min at RT. […]
(§3) The protein concentrations were measured using a BCA Protein Assay Kit (Thermo Fisher Scientific). […]
(§4) Antibodies against phospho‐STAT3 (Tyr705), phospho‐Akt (Ser473), p44/42 MAPK (Erk 1/2), phosphor‐p44/42 MAPK (Thr202/Tyr 204), and phospho‐c‐Met (Tyr1234/1235) (all from Cell Signaling Technology, Danvers, MA) or STAT3, Akt, c‐Met, and β‐actin (all from Santa Cruz Biotechnology, Santa Cruz, CA) or phospho‐c‐Met (Tyr1230/1234/1235) (Biosource, Camarillo, CA for KMS34 cells in Figure 3A) were each used at 1:1000 dilution. […] The Western blotting signals were detected by enhanced ECL chemiluminescence (Amersham). The signal intensity of each band was quantified densitometrically with ImageJ software (ver. 1.48, U.S. National Institutes of Health).

[11] = tested on: MUM24 cells; experiment: Combination treatment with bortezomib or lenalidomide, MTT assay; format: cell-based, human; conditions: GTN057 with bortezomib or lenalidomide
Method: FIGURE 1 GTN057 induced the cell death of MM cells in vitro. (A) The chemical structure of GTN057 and the putative degradation product, GTN054. (B) GTN057 induced the cell death of the MM cell lines. The cells were incubated with GTN057 for 48 h, and the number of viable cells was counted by trypan blue exclusion test. Bars: mean ± SD (n = 3). *p < 0.05 versus control. (C) Growth‐inhibitory effects of GTN057 on CD138‐positive cells obtained from MM patients' bone marrow. Cells were treated with GTN057. The viability was evaluated by an MTT assay. Bars: mean ± SD (n = 3). *p < 0.05 versus control. (D) Combination treatment of GTN057 with bortezomib (Btz) or lenalidomide (Len), two major standard myeloma drugs, in MUM24 cells. The viability was evaluated by an MTT assay. Bars: mean ± SD (n = 3). *p < 0.05 versus GTN057 alone. […]
For the 3‐[…] (MTT) assay (Roche Diagnostics), 6 × 10^4 cells/mL of CD138‐positive bone marrow cells were cultured in 96‐well plates in triplicate with various concentrations of GTN057 for 48 h. The cell viability was examined by MTT dye absorbance in accord with the manufacturer's manual. […]

[12] = tested on: ERK1/2; experiment: Western blot, dose-dependent inhibition of ERK1/2 phosphorylation in KMS34 cells; format: cell-based; conditions: Homo sapiens, KMS-34, Western blot densitometry, read-out: 50% inhibition of the phosphorylation of ERK1/2
Method: as §2, §3, §4

COc1c(OC(C)=O)c2c(c(O)c1C(C)C)C(=O)CC1C(C)(C)CCC[C@]1(O)C2 (stereo partly shown) [GTN057]
Colony formation of bone marrow cells ([1]; bone marrow cells from mice): did not inhibit the colony formation | Hematological toxicity in vitro ([1]; colony assay): negligible hematological toxicity | IC50 [2]: 20.1 µM | IC50 [3]: 10.1 µM | IC50 [4]: 11.2 µM | IC50 [5]: 7.93 µM | IC50 [6]: 20.5 µM | IC50 [7]: 5.29 µM | IC50 [8]: 24 µM | IC50 [9]: 9.91 µM | ERK1/2, STAT3, AKT1 phosphorylation levels [10]: did not clearly change | Effect of combination treatment [11]: additive anti‐myeloma effect | IC50 [12]: 21.3 µM
